Results taken from patent US20240041042A1, “1-(PYRIDYL)-5-AZINYLPYRAZOLE DERIVATIVES, AND THEIR USE FOR CONTROL OF UNDESIRED PLANT GROWTH” (Bayer Aktiengesellschaft, priority 2020, published 2024).
Like-named read-outs stand apart in the source and are kept apart here.

Assays:
Format in all cases: in vivo
Brassica napus (BRSNW) = settings: crop plant compatibility, in comparison to untreated controls
In short: (§1)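 Crop injury rated visually in percent against untreated plants roughly 3 weeks after treatment (0% no effect, 100% plants dead). Compounds, as WP or EC with 0.5% additive in 600 l/ha water, were applied to the covering soil right after sowing; greenhouse growth. Suffixes a, b, c denote different dosages.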

Glycine max (GLXMA) = settings: pre-emergence, crop plant compatibility, in comparison to untreated controls
In short: as §1

[1] = system: Triticum aestivum (TRZAS); settings: pre-emergence, 80 g/ha, crop plant compatibility, in comparison to untreated controls
In short: as §1

Oryza sativa (ORYSA) [2] = settings: pre-emergence, crop plant compatibility, in comparison to untreated controls
In short: as §1

Zea mays (ZEAMX) [3] = settings: pre-emergence, crop plant compatibility, in comparison to untreated controls
In short: as §1

Oryza sativa (ORYSA) [4] = settings: crop plant compatibility
In short: (§2)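 Foliar application at the one-leaf stage: WP/EC formulation, 0.5% additive, 600 l/ha water. Greenhouse-grown in sandy loam. Endpoint is visual % injury relative to untreated controls at about 3 weeks.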

Zea mays (ZEAMX) [5] = settings: crop plant compatibility, effect vs untreated controls
In short: as §2

[6] = system: Pharbitis purpurea (PHBPU); assay: Post-emergence herbicidal action against PHBPU; settings: dosage 320 g/ha
In short: (§3)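 Doses of 320 g/ha or lower, suffixes a, b and c marking different dosages, were applied post-emergence at the one-leaf stage in 600 l/ha water with 0.5% additive. Damage was assessed visually after about 3 weeks in the greenhouse.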

Setaria viridis (SETVI) [7] = assay: Pre-emergence herbicidal action against SETVI; settings: dosage 320 g/ha
In short: (§4)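 Seeds sown in pots and covered with soil; WP or EC formulations sprayed onto the soil surface at 600 l/ha water with 0.5% additive, at 320 g/ha or lower. Greenhouse growth for about 3 weeks, then visual scoring as % effect against untreated controls (100% = plants dead).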

Avena fatua (AVEFA) [8] = assay: Post-emergence herbicidal action against AVEFA; settings: 320 g/ha, visual rating about 3 weeks after treatment
In short: as §3

Setaria viridis (SETVI) [9] = assay: Post-emergence herbicidal action against SETVI
In short: as §3

[10] = system: Alopecurus myosuroides (ALOMY); assay: Pre-emergence herbicidal action against ALOMY; settings: 320 g/ha; scored visually after about 3 weeks; 100% = plants have died
In short: as §4

[11] = system: Triticum aestivum (TRZAS); settings: crop plant compatibility, 80 g/ha, effect vs untreated controls
In short: as §2

[12] = system: Verconica persica (VERPE); assay: Post-emergence herbicidal action against VERPE; settings: 320 g/ha, VERPE
In short: as §3

[13] = system: Amaranthus retroflexus (AMARE); assay: Post-emergence herbicidal action against AMARE
In short: as §3

Viola tricolor (VIOTR) [14] = assay: Post-emergence herbicidal action against VIOTR
In short: as §3

[15] = system: Amaranthus retroflexus (AMARE); assay: Pre-emergence herbicidal action against AMARE; settings: 320 g/ha, visual scoring after about 3 weeks vs untreated controls
In short: as §4

[16] = system: Alopecurus myosuroides (ALOMY); assay: Post-emergence herbicidal action against ALOMY; settings: 320 g/ha, visual rating about 3 weeks after treatment vs untreated controls (100% = plants have died, 0% = like control plants)
In short: as §3

Lolium rigidum (LOLRI) = assay: Pre-emergence herbicidal action against LOLRI; settings: dosage 320 g/ha
In short: as §4

[17] = system: Abutilon theophrasti (ABUTH); assay: Post-emergence herbicidal action against ABUTH; settings: 320 g/ha, visual rating about 3 weeks after treatment vs untreated controls (100% = plants have died, 0% = like control plants)
In short: as §3

[18] = system: Verconica persica (VERPE); assay: Pre-emergence herbicidal action against VERPE; settings: dosage 320 g/ha
In short: as §4

Avena fatua (AVEFA) [19] = assay: Pre-emergence herbicidal action against AVEFA; settings: 320 g/ha, visual scoring after about 3 weeks vs untreated controls
In short: as §4

Viola tricolor (VIOTR) [20] = assay: Pre-emergence herbicidal action against VIOTR
In short: as §4

[21] = system: Digitaria sanguinalis (DIGSA); assay: Pre-emergence herbicidal action against DIGSA; settings: dosage 320 g/ha
In short: as §4

[22] = 80 g/ha, effect in comparison to untreated controls
[23] = 320 g/ha, effect in comparison to untreated controls

Row | Pre-emergence action against BRSNW in % (Brassica napus (BRSNW); 80 g/ha) [%] | Pre-emergence action against BRSNW in % (Brassica napus (BRSNW); 320 g/ha) [%] | Pre-emergence action against GLXMA in % (Glycine max (GLXMA); 80 g/ha) [%] | Pre-emergence action against GLXMA in % (Glycine max (GLXMA); 320 g/ha) [%] | Pre-emergence action against TRZAS in % [1] [%] | Pre-emergence action against ORYSA in % (Oryza sativa (ORYSA) [2]; 80 g/ha) [%] | Pre-emergence action against ORYSA in % (Oryza sativa (ORYSA) [2]; 320 g/ha) [%] | Pre-emergence action against ZEAMX in % (Zea mays (ZEAMX) [3]; 80 g/ha) [%] | Pre-emergence action against ZEAMX in % (Zea mays (ZEAMX) [3]; 320 g/ha) [%] | Post-emergence action against ORYSA in % (Oryza sativa (ORYSA) [4]; [22]) [%] | Post-emergence action against ORYSA in % (Oryza sativa (ORYSA) [4]; [23]) [%] | Post-emergence action against ZEAMX in % (Zea mays (ZEAMX) [5]; 80 g/ha) [%] | Post-emergence action against ZEAMX in % (Zea mays (ZEAMX) [5]; 320 g/ha) [%] | Post-emergence action against TRZAS in % [11] [%] | Compound | Post-emergence action against PHBPU in % [6] [%] | Pre-emergence action against SETVI in % (Setaria viridis (SETVI) [7]) [%] | Pre-emergence action against ALOMY [10] [%] | Pre-emergence action against AMARE in % [15] [%] | Pre-emergence action against LOLRI in % (Lolium rigidum (LOLRI)) [%] | Pre-emergence action against VIOTR in % (Viola tricolor (VIOTR) [20]; 320 g/ha, Viola tricolor) [%] | other results
1 | 0 | 0 | 0 | 0 | 20 | 0 | 20 | 0 | 0 | 0 | 0 | 0 | 0 |  | CCOC(=O)COc1nn(-c2ncccc2OC)c(-c2ccc(F)nc2)c1I [Example I-386] |  |  |  |  |  |  | 
2 | 0 | 0 | 0 |  | 0 | 0 |  | 0 | 0 | 0 | 20 | 0 |  | 0 | O=C(O)COc1nn(-c2ccnc(Cl)c2)c(-c2ccc(F)nc2)c1Br [III-23] | 80 | 100 | 90 | 90 | 100 |  | Post-emergence action against AVEFA in % (Avena fatua (AVEFA) [8]): 80%; Post-emergence action against SETVI in % (Setaria viridis (SETVI) [9]; dosage 80 g/ha): 80%; Post-emergence action against SETVI in % (Setaria viridis (SETVI) [9]; dosage 320 g/ha): 100%; Post-emergence action against VERPE in % [12]: 90%; Post-emergence action against AMARE in % ([13]; 80 g/ha, visual rating about 3 weeks after treatment vs untreated controls (100% = plants have died, 0% = like control plants)): 90%; Post-emergence action against AMARE in % ([13]; 320 g/ha, visual rating about 3 weeks after treatment): 90%; Post-emergence action against VIOTR in % (Viola tricolor (VIOTR) [14]; 320 g/ha): 90%; Post-emergence action against ALOMY in % [16]: 100%; Post-emergence action against ABUTH in % [17]: 80%
3 | 0 |  | 0 |  |  | 0 |  | 20 |  | 0 |  |  |  |  | COC(=O)[C@@H](C)Oc1nn(-c2cccnc2F)c(-c2ccc(F)nc2)c1Br [II-36] |  | 80 | 100 | 100 | 80 | 100 | Pre-emergence action against VERPE in % [18]: 80%; Pre-emergence action against AVEFA in % (Avena fatua (AVEFA) [19]): 80%; Pre-emergence action against VIOTR in % (Viola tricolor (VIOTR) [20]; dosage 80 g/ha): 80%; Post-emergence action against ORYSA in % (Oryza sativa (ORYSA) [4]; 20 g/ha, effect vs untreated controls): 0%; Pre-emergence action against DIGSA in % [21]: 100%; Post-emergence action against VIOTR in % (Viola tricolor (VIOTR) [14]; 80 g/ha): 80%
4 | 0 | 20 | 0 | 20 | 0 |  | 0 | 0 | 0 | 0 | 0 | 0 | 0 | 10 | COC(=O)COc1nn(-c2ncccc2OC)c(-c2ccc(F)nc2)c1Cl [Example I-346] | 90 |  |  |  |  | 80 | 
